Two compounds from patent US6821926B1, “Carbamoyl triazolinone based herbicide” (Bayer Aktiengesellschaft, priority 1999, dated 2004) can be followed below.

Holding throughout (assay): Pre-emergence/greenhouse herbicidal test, % damage
Common to all, as to format: in vivo

For one test, the system named is Abutilon. Particulars: pre-emergence, after approximately 3 weeks. On the procedure: (§1) Customary formulations of the respective active compounds were used. Butafenacil was employed as Inspire® 100 EC, azafenidin as an 80 WG formulation and the compound of the formula (I-1) as a 70 WG formulation. The active compounds were used to prepare an aqueous spray mixture with 0.1% of Renex-36 as additive. Pre-emergence/greenhouse Seeds of the test plants are sown in standard soil. After 24 hours, the test compound or the combination of test compounds, is sprayed onto the soil surface in such a manner as to apply the amount of active compound per unit area desired in each case. The concentration of the spray mixture is chosen so that the desired amounts of active compound desired are applied in 500 l of water per ha. After the spray application, the plant containers are placed in the greenhouse under constant light and temperature conditions. After approximately 3 weeks, the degree of damage of the crop plants is scored in % damage in comparison with the development of the untreated control. The figures denote: 0%=no damage (as untreated control) 100%=Total destruction/damage

For another test, the system named is Alopecurus. The following applies: pre-emergence, after approximately 3 weeks. Here is the method:
as §1

A further test deals with Cassia. Particulars: pre-emergence, after approximately 3 weeks. On the procedure: as §1
Another test deals with Datura. Particulars: pre-emergence, after approximately 3 weeks. Here is the method: as §1
A further test has as its system Digitaria. The following applies: pre-emergence, after approximately 3 weeks. On the procedure:
as §1

The next test relates to Galium. The following applies: pre-emergence, after approximately 3 weeks. On the procedure: as §1
A further test has as its system Ipomea. The following applies: pre-emergence, after approximately 3 weeks. Here is the method:
as §1

The next test deals with Setaria. The following applies: pre-emergence, after approximately 3 weeks. Here is the method: as §1
Another test has as its system Solanum. The following applies: after approximately 3 weeks. Here is the method:
as §1

The test system of another test is Xanthium. Particulars: pre-emergence, after approximately 3 weeks. Here is the method: as §1

With `C=CCOC(=O)C(C)(C)OC(=O)c1cc(-n2c(=O)cc(C(F)(F)F)n(C)c2=O)ccc1Cl` [Butafenacil, [1,1-dimethyl-2-oxo-2-(2-propenyloxy)]-ethyl 2-chloro-5-(3,6-dihydro-3-methyl-2,6-dioxo-4-trifluoromethyl-1(2H)-pyrimidinyl)-benzoate], the Abutilon observed in the test with Abutilon (2 g ai/ha) was 30%. For the same compound, the Alopecurus observed in the test on Alopecurus (0.5 g ai/ha) and in the test on Alopecurus (2 g ai/ha) was 0% throughout. The Cassia observed in the test with Cassia (0.5 g ai/ha) worked out at 0%. Besides, in the test on Datura (2 g ai/ha), the Datura observed turned out to be 30%. The Digitaria observed with Digitaria (0.5 g ai/ha) and in the test on Digitaria (1 g ai/ha) was 20% in each case. Besides, the Galium observed with Galium (1 g ai/ha) was found to be 0%. Further, the Ipomea observed in the test on Ipomea (0.5 g ai/ha) came to 0%. The Setaria observed in the test with Setaria (0.5 g ai/ha) and in the test on Setaria (2 g ai/ha) was 0% in each case. Besides, the Solanum observed is 0% in the test with Solanum (pre-emergence, 0,5 g ai/ha); 0% with Solanum (pre-emergence, 1 g ai/ha); 0% with Solanum (pre-emergence, 2 g ai/ha). Also, the Xanthium observed in the test with Xanthium (2 g ai/ha) is given as 0%.

For the compound `CC(C)c1nn(C(=O)NC(C)(C)C)c(=O)n1N` [Compound (I-1), 4-amino-5-(1-methyl-ethyl)-2-(1,1-dimethyl-ethyl-aminocarbonyl)-2,4-dihydro-3H-1,2,4-triazol-3-one], the Abutilon observed in the test with Abutilon (60 g ai/ha) is on record as 50%. For the same compound, in the test with Alopecurus (125 g ai/ha), the Alopecurus observed is 0%. For the same compound, the Cassia observed in the test with Cassia (60 g ai/ha) amounted to 30%. Also, the Datura observed with Datura (60 g ai/ha) was determined as 50%. Further, the Digitaria observed in the test on Digitaria (125 g ai/ha) was found to be 40%. In addition, the Galium observed with Galium (125 g ai/ha) is reported as 80%. The Ipomea observed in the test with Ipomea (125 g ai/ha) came out at 50%. In the test on Setaria (125 g ai/ha), the Setaria observed was determined as 0%. Besides, the Solanum observed in the test with Solanum (pre-emergence, 60 g ai/ha) is listed as 90%. For the same compound, the Xanthium observed in the test with Xanthium (125 g ai/ha) stood at 90%.
